What was measured:
recombinant GST-GK = molecular target: T1, recombinant GST-GK (Homo sapiens, UniProt P35557); assay: in vitro assay measuring the activation of recombinant GST-GK; type: biochemical; conditions: thioNADH-coupled assay read at 405 nm
T1 sequence (P35557 1-465): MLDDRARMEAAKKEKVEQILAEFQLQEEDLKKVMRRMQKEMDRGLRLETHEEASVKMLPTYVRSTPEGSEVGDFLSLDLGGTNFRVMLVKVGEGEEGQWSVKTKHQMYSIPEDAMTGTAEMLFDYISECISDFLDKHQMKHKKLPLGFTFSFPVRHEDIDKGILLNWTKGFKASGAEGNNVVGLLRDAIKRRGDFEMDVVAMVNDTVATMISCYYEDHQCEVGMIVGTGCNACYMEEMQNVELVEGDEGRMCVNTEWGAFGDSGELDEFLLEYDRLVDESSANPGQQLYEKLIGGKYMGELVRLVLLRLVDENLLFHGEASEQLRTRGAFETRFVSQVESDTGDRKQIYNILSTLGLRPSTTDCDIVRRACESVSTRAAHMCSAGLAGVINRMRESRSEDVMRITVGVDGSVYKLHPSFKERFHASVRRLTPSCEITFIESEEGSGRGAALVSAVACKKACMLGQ
From the text: The glucokinase activation in vitro may be determined by measuring the activation of recombinant GST-GK by a compound of the present invention in the absence or the presence of GKRP, a 68,000 Da protein inhibitor of GK. In these assays, formation of glucose-6-phosphate is coupled directly to the formation of thioNADH. GST-GK catalyzes the reaction of glucose and Mg-ATP to produce glucose-6-phosphate and ADP. Glucose-6-phosphate dehydrogenase (G6PDH) reduces thionicotinamide (thioNAD) to thioNADH. The assay measures the formation of […] at 405 nM.
The basic GK assay components are as follows: 25 mM HEPES (pH 7.1), 25 mM KCl, 2.5 mM MgCl2, 1 mM ATP (Sigma A-5394), 1 mM DTT, 1 mM thioNAD (Sigma T-7375), 80 units/mL G6PDH (Sigma G-5885), 10 mM glucose and […] GST-GK (110 nM). For assessing reversal of GK inhibition by GKRP, 20 μM Fructose-1-phosphate ([…]) and 25 μg/mL of recombinant GKRP (370 nM) are added to these assay components. F-1-P at 1 μM is used as a control in the GK/GKRP assay. F-1-P reverses inhibition of GST-GK by GKRP.
The assay is done in standard, 96-well, round-bottom plates and the total assay volume is 25 μL. […] The plates are then delivered via the Zymark XP arm to a Thermomax plate reader and read kinetically over three min at 405 nM at RT. Units are expressed as milli-optical density per minute (mOD/min).

Row | EC50 (recombinant GST-GK) [nM] | melting point [°C] | Compound
1 | ~106 | 158 to 160 | CCOCS(=O)(=O)c1ccc(C(CC2CCCC2)C(=O)Nc2nc3ccc(OC)nc3s2)cc1 (stereo not shown) [Example 1, 3-Cyclopentyl-2-(4-ethoxymethanesulfonyl-phenyl)-N-(5-methoxy-thiazolo[5,4-b]pyridin-2-yl)-propionamide]
2 |  | 67 to 71 | COc1ccc2nc(NC(=O)C(CC3CCCC3)c3ccc(S(=O)(=O)CC(C)=O)cc3)sc2n1 (stereo not shown) [Example 2, 3-Cyclopentyl-N-(5-methoxy-thiazolo[5,4-b]pyridin-2-yl)-2-[4-(2-oxo-propane-1-sulfonyl)-phenyl]-propionamide]
3 |  | 169 to 172 | COc1ccc2nc(NC(=O)C(CC3CCCC3)c3ccc(S(=O)(=O)CCc4ccccc4)cc3)sc2n1 (stereo not shown) [Example 3, 3-Cyclopentyl-N-(5-methoxy-thiazolo[5,4-b]pyridin-2-yl)-2-[4-(2-phenyl-ethanesulfonyl)-phenyl]-propionamide]

From US7781451B2, “Thiazolopyridine derivatives, pharmaceut ical conditions containing them and methods of treating glucokinase mediated conditions” (Novartis AG, priority 2004, dated 2010)
